Assay in all cases: Kinase selectivity, DiscoverX scanMAX Kinase assay panel (% control)
Common to all, as to type: binding

The target of experiment [1] is T1, kinases of the scanMAX Kinase assay panel (Homo sapiens, UniProt O00238).
T1 construct: purchased DiscoverX Co. (contract measurement) scanMAX Kinase assay panel
The following applies: BMPR1B; 1 uM. Put shortly:
(§1)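 Read-out is % control, normalised so a positive-control compound sits at 0% and DMSO at 100%: (test − positive)/(negative − positive)×100. Each kinase received the compound at 1 uM in DMSO. A value below 35% counts as activity.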

The target in experiment [2] is T2, kinases of the scanMAX Kinase assay panel (Homo sapiens, UniProt O00444).
T2 construct: purchased DiscoverX Co. (contract measurement) scanMAX Kinase assay panel
T2 sequence (O00444 1-970): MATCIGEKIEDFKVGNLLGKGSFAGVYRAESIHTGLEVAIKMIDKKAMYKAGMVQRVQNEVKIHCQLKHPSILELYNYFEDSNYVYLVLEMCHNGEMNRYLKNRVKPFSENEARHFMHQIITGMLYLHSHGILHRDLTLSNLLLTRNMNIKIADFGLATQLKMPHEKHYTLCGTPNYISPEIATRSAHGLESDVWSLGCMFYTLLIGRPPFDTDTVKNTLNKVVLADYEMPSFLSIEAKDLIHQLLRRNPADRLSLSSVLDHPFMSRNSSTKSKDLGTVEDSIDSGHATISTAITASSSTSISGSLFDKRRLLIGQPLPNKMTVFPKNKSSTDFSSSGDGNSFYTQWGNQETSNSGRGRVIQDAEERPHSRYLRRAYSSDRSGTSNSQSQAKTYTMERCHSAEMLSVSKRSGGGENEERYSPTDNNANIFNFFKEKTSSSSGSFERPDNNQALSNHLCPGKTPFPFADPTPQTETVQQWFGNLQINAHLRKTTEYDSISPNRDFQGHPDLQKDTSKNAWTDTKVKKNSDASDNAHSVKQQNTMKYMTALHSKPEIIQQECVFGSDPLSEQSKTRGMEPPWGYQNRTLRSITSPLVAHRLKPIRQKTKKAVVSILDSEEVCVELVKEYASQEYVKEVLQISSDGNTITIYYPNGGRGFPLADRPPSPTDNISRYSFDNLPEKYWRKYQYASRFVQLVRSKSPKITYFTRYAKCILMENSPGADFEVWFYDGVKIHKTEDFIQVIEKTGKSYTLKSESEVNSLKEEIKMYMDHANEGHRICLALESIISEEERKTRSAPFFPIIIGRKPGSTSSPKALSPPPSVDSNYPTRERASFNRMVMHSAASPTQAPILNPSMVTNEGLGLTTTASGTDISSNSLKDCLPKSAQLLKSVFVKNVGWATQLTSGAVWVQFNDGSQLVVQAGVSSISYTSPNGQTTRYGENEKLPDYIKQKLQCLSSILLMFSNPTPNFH
The settings on record: PLK4; 1 uM. The method, boiled down:
as §1

Experiment [3] concerns the target T3, kinases of the scanMAX Kinase assay panel (Homo sapiens, UniProt O14730).
T3 construct: purchased DiscoverX Co. (contract measurement) scanMAX Kinase assay panel
T3 sequence (O14730 1-519): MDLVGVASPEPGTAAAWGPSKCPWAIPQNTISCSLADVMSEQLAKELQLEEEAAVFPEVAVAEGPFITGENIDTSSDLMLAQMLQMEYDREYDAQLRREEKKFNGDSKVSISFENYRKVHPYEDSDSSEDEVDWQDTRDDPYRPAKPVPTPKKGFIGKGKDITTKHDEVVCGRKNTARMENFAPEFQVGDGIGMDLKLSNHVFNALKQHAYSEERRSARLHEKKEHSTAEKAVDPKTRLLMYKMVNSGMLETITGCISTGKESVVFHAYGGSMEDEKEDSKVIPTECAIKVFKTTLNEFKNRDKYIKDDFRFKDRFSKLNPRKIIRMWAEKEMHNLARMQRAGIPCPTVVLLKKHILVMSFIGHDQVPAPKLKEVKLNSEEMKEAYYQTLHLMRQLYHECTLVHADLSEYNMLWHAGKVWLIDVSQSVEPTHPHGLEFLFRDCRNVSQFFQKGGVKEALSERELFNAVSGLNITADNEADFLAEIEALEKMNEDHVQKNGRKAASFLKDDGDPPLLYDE
The settings on record: kinase RIOK3; 1 uM in DMSO. Put shortly: as §1

Experiment [4] concerns the target T4, kinases of the scanMAX Kinase assay panel (Homo sapiens, UniProt P00533, T790M).
T4 construct: purchased DiscoverX Co. (contract measurement) scanMAX Kinase assay panel
The settings on record: EGFR(T790M); 1 uM. Put shortly:
as §1

The target in experiment [5] is T5, kinases of the scanMAX Kinase assay panel (Homo sapiens, UniProt P48736).
T5 construct: purchased DiscoverX Co. (contract measurement) scanMAX Kinase assay panel
The settings on record: PIK3CG; 1 uM. Put shortly:
as §1

The target in experiment [6] is T6, kinases of the scanMAX Kinase assay panel (Homo sapiens, UniProt Q9BQI3).
T6 construct: purchased DiscoverX Co. (contract measurement) scanMAX Kinase assay panel
The following applies: EIF2AK1; 1 uM. Put shortly: as §1

The target in experiment [7] is T7, kinases of the scanMAX Kinase assay panel (Homo sapiens, UniProt Q9P2K8, S808G).
T7 construct: purchased DiscoverX Co. (contract measurement) scanMAX Kinase assay panel
The settings on record: GCN2(Kin.Dom.2, S808G); 1 uM. Put shortly: as §1

T1 sequence (O00238 14-502): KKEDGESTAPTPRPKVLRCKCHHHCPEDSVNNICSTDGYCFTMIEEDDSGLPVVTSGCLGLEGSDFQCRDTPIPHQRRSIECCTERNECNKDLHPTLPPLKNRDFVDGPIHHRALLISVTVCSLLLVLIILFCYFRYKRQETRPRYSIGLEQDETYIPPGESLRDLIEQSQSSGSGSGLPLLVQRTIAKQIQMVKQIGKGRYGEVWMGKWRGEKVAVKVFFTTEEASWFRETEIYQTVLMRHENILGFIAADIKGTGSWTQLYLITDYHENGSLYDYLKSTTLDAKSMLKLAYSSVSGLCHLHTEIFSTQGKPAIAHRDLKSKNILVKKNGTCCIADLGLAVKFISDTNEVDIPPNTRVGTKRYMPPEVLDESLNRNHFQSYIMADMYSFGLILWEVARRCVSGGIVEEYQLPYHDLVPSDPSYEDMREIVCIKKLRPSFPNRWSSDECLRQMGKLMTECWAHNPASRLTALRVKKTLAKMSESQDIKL
T5 sequence (P48736 whole entry): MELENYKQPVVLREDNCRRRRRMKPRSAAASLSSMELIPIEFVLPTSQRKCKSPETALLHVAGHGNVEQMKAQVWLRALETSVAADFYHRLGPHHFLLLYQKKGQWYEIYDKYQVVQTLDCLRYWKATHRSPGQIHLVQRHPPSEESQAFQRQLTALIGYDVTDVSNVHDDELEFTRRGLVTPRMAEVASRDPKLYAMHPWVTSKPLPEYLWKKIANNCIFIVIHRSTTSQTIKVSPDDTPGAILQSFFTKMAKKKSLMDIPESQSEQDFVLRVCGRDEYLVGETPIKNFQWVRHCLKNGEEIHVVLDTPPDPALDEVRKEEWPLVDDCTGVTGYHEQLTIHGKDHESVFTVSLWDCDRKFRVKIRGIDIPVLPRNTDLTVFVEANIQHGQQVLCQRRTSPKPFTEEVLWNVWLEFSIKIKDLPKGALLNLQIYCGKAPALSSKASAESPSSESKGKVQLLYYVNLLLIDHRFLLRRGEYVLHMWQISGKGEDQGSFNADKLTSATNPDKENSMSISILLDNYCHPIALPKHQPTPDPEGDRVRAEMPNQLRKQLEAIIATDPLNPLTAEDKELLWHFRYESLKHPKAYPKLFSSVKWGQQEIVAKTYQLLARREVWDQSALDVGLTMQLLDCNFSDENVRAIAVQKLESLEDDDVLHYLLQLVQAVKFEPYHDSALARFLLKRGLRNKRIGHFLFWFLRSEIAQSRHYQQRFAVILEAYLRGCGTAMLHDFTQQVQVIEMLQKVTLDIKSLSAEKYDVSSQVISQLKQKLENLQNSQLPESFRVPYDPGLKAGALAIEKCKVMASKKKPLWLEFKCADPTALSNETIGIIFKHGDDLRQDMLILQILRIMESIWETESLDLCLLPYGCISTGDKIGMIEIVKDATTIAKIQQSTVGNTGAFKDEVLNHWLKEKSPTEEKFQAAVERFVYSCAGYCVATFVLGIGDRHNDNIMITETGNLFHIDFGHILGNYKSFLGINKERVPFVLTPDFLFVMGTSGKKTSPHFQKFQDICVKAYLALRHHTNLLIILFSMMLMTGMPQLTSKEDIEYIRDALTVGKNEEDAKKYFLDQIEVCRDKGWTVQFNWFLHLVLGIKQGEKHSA
T7 sequence (Q9P2K8 whole entry S808G): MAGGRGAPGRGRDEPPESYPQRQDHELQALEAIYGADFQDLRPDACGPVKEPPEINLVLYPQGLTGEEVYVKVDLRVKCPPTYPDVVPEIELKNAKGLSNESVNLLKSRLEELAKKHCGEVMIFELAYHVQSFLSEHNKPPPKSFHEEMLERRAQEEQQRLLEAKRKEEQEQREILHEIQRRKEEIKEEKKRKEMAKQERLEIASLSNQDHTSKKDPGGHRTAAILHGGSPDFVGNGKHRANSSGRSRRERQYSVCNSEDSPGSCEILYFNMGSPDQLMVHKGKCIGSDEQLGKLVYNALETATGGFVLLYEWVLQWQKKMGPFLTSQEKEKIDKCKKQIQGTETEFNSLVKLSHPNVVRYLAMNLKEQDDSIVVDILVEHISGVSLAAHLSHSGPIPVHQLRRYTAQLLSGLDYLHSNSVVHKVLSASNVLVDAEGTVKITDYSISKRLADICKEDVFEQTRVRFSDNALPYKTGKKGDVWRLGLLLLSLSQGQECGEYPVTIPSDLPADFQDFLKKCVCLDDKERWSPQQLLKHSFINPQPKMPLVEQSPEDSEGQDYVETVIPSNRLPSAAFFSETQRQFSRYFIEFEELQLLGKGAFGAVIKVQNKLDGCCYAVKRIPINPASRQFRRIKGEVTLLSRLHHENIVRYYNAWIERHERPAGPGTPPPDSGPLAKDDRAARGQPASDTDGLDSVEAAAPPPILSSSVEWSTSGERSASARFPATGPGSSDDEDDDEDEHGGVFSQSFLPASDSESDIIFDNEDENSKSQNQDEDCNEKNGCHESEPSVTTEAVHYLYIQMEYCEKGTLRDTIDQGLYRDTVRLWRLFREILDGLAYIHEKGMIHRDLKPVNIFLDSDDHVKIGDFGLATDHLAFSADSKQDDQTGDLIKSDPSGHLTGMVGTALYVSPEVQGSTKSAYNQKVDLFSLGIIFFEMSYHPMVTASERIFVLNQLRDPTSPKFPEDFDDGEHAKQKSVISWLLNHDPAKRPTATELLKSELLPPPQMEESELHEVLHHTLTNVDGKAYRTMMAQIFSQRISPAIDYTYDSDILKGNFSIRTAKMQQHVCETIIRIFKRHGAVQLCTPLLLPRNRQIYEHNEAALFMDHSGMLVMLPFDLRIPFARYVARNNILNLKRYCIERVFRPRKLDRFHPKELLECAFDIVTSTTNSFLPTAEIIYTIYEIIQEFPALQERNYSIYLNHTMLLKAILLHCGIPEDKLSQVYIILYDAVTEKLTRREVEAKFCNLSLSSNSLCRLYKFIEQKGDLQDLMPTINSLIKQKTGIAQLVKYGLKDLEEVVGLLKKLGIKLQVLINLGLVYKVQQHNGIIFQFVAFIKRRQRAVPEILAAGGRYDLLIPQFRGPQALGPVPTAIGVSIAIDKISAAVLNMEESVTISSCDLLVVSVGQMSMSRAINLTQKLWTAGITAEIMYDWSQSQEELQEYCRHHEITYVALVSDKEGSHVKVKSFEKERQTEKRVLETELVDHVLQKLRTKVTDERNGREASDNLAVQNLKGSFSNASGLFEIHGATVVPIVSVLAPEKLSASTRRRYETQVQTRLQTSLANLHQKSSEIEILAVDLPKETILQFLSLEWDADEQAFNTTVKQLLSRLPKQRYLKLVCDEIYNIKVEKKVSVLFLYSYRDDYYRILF
T6 sequence (Q9BQI3 whole entry): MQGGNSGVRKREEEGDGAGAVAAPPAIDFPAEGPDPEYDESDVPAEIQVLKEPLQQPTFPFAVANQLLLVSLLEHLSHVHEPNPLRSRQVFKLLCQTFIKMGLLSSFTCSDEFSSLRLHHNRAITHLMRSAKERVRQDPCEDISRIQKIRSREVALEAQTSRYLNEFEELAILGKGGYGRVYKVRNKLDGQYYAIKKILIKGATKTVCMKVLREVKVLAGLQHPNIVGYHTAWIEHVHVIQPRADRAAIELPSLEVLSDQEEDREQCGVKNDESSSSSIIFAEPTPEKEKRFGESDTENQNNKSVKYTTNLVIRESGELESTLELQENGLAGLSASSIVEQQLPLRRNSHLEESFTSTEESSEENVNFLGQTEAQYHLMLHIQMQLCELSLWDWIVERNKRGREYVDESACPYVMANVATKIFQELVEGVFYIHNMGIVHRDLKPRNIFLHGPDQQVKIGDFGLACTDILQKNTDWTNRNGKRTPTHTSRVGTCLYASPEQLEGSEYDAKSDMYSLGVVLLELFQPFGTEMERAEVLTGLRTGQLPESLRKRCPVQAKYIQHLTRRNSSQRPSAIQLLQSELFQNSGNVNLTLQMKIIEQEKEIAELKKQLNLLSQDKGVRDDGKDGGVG
T4 sequence (P00533 25-1210 T790M): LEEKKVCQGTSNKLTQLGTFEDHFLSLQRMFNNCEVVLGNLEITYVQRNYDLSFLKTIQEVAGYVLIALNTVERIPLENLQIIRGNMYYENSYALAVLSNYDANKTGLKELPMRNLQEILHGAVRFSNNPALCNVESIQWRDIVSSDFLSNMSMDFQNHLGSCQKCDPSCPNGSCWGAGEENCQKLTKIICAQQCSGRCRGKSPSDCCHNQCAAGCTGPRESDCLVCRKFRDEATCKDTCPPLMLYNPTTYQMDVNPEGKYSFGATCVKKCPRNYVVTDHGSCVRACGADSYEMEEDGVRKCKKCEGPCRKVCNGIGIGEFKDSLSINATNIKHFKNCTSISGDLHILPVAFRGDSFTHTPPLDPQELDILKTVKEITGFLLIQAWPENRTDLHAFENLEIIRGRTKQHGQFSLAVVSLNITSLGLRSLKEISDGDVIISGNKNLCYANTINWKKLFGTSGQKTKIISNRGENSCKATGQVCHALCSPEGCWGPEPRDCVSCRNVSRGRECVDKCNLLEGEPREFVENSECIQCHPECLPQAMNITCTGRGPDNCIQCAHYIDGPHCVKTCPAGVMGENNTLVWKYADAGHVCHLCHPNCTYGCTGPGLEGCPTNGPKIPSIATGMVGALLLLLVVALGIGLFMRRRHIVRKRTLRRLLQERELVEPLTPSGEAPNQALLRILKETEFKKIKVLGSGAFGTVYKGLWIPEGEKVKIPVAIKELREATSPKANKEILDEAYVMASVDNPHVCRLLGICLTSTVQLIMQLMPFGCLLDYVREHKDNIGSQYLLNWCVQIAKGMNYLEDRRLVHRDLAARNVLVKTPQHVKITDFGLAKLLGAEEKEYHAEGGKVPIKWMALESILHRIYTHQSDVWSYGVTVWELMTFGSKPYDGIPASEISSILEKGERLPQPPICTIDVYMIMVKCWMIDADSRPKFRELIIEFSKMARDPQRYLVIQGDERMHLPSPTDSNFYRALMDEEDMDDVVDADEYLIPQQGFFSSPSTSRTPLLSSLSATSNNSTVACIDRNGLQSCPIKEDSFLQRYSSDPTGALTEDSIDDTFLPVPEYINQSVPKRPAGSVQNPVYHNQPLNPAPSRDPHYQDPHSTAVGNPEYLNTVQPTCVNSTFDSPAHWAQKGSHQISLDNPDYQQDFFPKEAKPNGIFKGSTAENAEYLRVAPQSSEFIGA

With `CNc1nc(Nc2ccc(C(=O)N3CCOCC3)cc2OC)nc2[nH]cc(C#N)c12` [Example 1, 2-((2-methoxy-4-(morpholine-4-carbonyl)phenyl)amino)-4-(methylamino)-7H-pyrrolo[2,3-d]pyrimidine-5-carbonitrile], the remaining binding at 1 µM in experiment [1] is 98%; in experiment [2] it was 17%; in experiment [3], 97%; in experiment [4], 61%; in experiment [5] it was 76%; in experiment [6] it was 64%. Further, the remaining binding at 1 µM in experiment [7] came out at 93%.

Regarding `CC1(Nc2nc(Nc3cnn([C@H]4CCN(C5COC5)C[C@@H]4F)c3Cl)nc3[nH]cc(C#N)c23)CC1` [Example 52, 2-((5-chloro-1-((3S,4S)-3-fluoro-1-(oxetane-3-yl)piperidine-4-yl)-1H-pyrazole-4-yl)amino)((1-methylcyclopropyl)amino)-7H-pyrrolo[2,3-d]pyrimidine-5-carbonitrile], the remaining binding at 1 µM was 22% in experiment [1]; 0% in experiment [2]; 0.4% in experiment [3]; 1.3% in experiment [4]; 8.5% in experiment [5]; 86% in experiment [6]. The same molecule showed a remaining binding at 1 µM in experiment [7] of 33%.

With `CCNc1nc(Nc2ccc(C(=O)N3CCC(N4CCOCC4)CC3)cc2OC)nc2[nH]cc(C(F)(F)F)c12` [Example 104, (4-((4-(ethylamino)-5-(trifluoromethyl)-7H-pyrrolo[2,3-d]pyrimidine-2-yl)amino)-3-methoxyphenyl)(4-morpholinopiperidine-1-yl)methanone], the remaining binding at 1 µM worked out at 83% in experiment [1]; 1.7% in experiment [2]; 100% in experiment [3]; 41% in experiment [4]; 87% in experiment [5]; 90% in experiment [6]. The molecule also gave a remaining binding at 1 µM in experiment [7] of 64%.
